These results are taken from paper PMC6130654 (Pharmaceutical Biology, 2016).

The subject of one series is P-gp. Kind of series: P-gp expression levels in small intestine by western blot analysis. The series is classed as in vivo, ICR mice. To be noted: mouse small intestine, intragastric, seven days; for P-gp expression compared with negative control: normalized to Na+-K+-ATPase. As for the experimental part:
Healthy male ICR mice (18-22 g of body weight) were purchased from SPF Animal Centre of […] Medical University ([…], China). […] The drugs were administrated intragastrically for seven consecutive days. Membrane proteins were harvested by […] Membrane and Plasma Protein Purification Kit ([…], Nanjing, China), and the protein concentrations were determined using KeyGEN BCA Protein Quantitation Assay kit ([…], Nanjing, China). An equal quantity of protein (48 μg) from membrane protein was resolved using 7.5% SDS-PAGE gel and subsequently transferred onto nitrocellulose membranes (Bio-Trace, Auckland, New Zealand). […] Antibodies were both purchased from Abcam (Cambridge, United Kingdom). The membranes were incubated with horseradish peroxidase-conjugated AffiniPure Goat Anti-Rabbit IgG (ZSGB-BIO, Beijing, China) for 1 h and signals were observed using SuperSignal West Pico (Thermo Scientific, Waltham, MA). Western blotting bands intensity was quantified by densitometric analysis using Image J version 2 × (NIH Image Software, […]).
In general terms: In western blotting, separated proteins are transferred to a membrane and probed.

The test system of series [1] is ABC transporter coupling ATPase. Kind of series: ABC transporter-related ATPase activity assay on small intestine membrane proteins. The settings on record: mouse small intestine, intragastric, seven days, p < 0.05. The format is in vivo, mice. An excerpt:
Healthy male ICR mice (18-22 g of body weight) were purchased from SPF Animal Centre of […] Medical University ([…], China). […] The drugs were administrated intragastrically for seven consecutive days.

The conditions of series [2]: ref Wei et al. [2015]; cited from earlier work.
A further series has as its system Plasmodium berghei. More on the design: method as in Wei et al. [2015]. The settings on record: ref Wei et al. [2015]; cited from earlier work.
A further series concerns MDR1 mRNA. Put plainly: MDR1 expression in small intestine determined by RT-qPCR. To be noted: mouse small intestine; intragastric, seven days; verapamil 40 mg/kg, ART-verapamil 1:1, ART-CHR all ratios, CHR alone 80 mg/kg; p < 0.01.
The next series relates to rat CYP3A. To be noted: ref Wei et al. [2015]; cited from earlier work.

Protocol for MDR1 mRNA: All animals were housed in polycarbonate cages and acclimated in an environmentally controlled room (23 ± 2 °C, with adequate ventilation and a 12 h light/dark cycle) prior to use. All animals were provided with standard laboratory food and water before and during the experiments. […] The drugs were administrated intragastrically for seven consecutive days.
The mice were euthanized by cervical vertebra dislocation. Small intestines were harvested and cleaned using normal saline at least three times. Total RNA was extracted from the mouse small intestine using E.Z.N.A.^TM Total RNA Kit (OMEGA Bio-Tek, Norcross, GA), in accordance with the instructions of the manufacturer. RNA concentrations were measured with a microplate spectrophotometer (Bio-RAD, Hercules, CA) at 260 nm. RNA quality was evaluated using electrophoresis in 1% agarose gels. Total RNA (3 μg) was reverse transcribed into first-strand complementary DNA (cDNA) using Thermo Scientific RevertAid First Strand cDNA Synthesis Kit (Thermo Scientific, Waltham, MA). Each cDNA sample (1 μL) was amplified with 12 μL Thermo Scientific Maxima SYBR Green qPCR Master Mix (2×). ROX Solution provided (Thermo Scientific, Waltham, MA) and 1 μmol of each primer. […]

As to `C[C@@H]1CC[C@H]2[C@@H](C)C(=O)O[C@@H]3O[C@@]4(C)CC[C@@H]1[C@]32OO4` [ART, artemisinin, reference compound], the “P-gp expression compared with negative control” value in the series with P-gp is reported as “up-regulated”. Moreover, in series [1] (ART 40 mg/kg, verapamil 40 mg/kg), the “ATPase activity versus the vehicle” value is recorded as “remarkably decreased”.
As to `COc1cc(-c2oc3cc(OC)c(OC)c(O)c3c(=O)c2OC)ccc1O` [CHR, Chrysosplenetin], the “effect of CHR on rat plasma concentration of ART” value in series [2] was “significantly increased”. Besides, the “effect of CHR on anti-malarial efficacy of ART” value with Plasmodium berghei is “significantly increased”. Moreover, the “P-gp expression levels compared with ART alone” value with P-gp (ART-verapamil (1:1), ART-CHR (1:0.1, 1:1, 1:2, 1:4), CHR alone, p < 0.05 and p < 0.01) is given as “significantly decreased”. In addition, the “P-gp expression compared with negative control” value with P-gp is recorded as “No significant difference”. In addition, in the series on MDR1 mRNA, the “MDR1 mRNA expression compared with ART alone” value is given as “reversed to normal levels”. The “manner of inhibition of rat CYP3A” value in the series on rat CYP3A is on record as “uncompetitive”. Moreover, the “ATPase activity compared with ART alone” value in series [1] (ART-CHR 1:4 (40:160 mg/kg), CHR alone 80 mg/kg) was “slight increase”.
